The target in assay [1] is T1, Tyrosine-protein kinase JAK2 (Homo sapiens, UniProt O60674). Description: Inhibition of recombinant human JAK2 (808 to end residues) using biotinylated TK substrate in presence of [33P]ATP.
For assay [2], the system named is BaF3. Description: Antitumor activity against mouse BaF3 cells harboring JAK2 V617F mutant implanted in BALB/c mouse model assessed as normalization rate of liver weight at 150 mg/kg, po qd administered from day 4 post infection and measured after 14 days relative to control. It counts as functional. Conditions: time 10 day.
Assay [3] concerns BaF3. Description: Antitumor activity against mouse BaF3 cells harboring JAK2 V617F mutant implanted in BALB/c mouse model assessed as normalization rate of spleen weight at 150 mg/kg, po qd administered from day 4 post infection and measured after 14 days relative to control. Format: functional. Conditions: time 10 day.
The test system of a further assay is MOLM-13. Description: Antitumor activity against human MOLM-13 cells xenografted mouse model assessed as tumor growth inhibition at 150 mg/kg administered for 7 days relative to control. It counts as functional. Conditions: MOLM-13, 168 h, time 7 day, read-out: TGI. For orientation: Xenograft models place foreign cells or tissue in a host animal.
The target in assay [4] is T1, Tyrosine-protein kinase JAK2. The assay is described as follows: Inhibition of recombinant GST-tagged JAK2 catalytic domain (unknown origin) using pEY (4:1) as substrate incubated for 120 mins in presence of 33P-labeled ATP.
Assay [5] has the same target. The assay is described as follows: Inhibition of JAK2 (unknown origin) using FAM-labeled peptide as substrate preincubated with compound for 10 mins followed by substrate addition and measured after 60 mins in presence of ATP.
Assay [6] addresses T2, Receptor-type tyrosine-protein kinase FLT3 (Homo sapiens, UniProt P36888).
T2 sequence (P36888 whole entry): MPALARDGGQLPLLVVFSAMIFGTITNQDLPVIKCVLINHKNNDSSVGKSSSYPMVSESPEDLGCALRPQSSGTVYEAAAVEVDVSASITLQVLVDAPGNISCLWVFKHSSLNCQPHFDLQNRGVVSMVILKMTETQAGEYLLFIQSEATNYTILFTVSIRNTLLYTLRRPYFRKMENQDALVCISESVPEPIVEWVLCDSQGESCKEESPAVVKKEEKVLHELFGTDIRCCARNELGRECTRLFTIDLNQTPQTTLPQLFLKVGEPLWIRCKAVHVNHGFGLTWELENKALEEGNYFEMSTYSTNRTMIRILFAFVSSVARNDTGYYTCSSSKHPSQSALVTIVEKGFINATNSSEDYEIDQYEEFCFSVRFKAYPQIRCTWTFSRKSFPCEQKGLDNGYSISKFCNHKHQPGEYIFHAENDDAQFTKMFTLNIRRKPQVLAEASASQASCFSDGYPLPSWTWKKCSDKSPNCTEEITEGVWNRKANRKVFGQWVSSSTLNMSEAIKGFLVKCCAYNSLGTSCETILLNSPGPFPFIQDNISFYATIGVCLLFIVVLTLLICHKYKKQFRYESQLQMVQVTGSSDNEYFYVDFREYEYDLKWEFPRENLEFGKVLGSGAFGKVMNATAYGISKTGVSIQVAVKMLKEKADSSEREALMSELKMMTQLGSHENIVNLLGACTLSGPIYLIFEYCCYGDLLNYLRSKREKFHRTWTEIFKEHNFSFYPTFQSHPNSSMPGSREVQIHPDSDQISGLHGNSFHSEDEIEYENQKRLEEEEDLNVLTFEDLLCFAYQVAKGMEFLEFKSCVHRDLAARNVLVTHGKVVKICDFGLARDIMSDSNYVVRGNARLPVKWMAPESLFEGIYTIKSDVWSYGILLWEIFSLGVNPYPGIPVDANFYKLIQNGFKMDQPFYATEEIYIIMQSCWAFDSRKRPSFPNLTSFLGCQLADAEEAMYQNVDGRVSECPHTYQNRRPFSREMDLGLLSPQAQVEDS
Description: Inhibition of FLT3 (unknown origin) using FAM-labeled peptide as substrate preincubated with compound for 10 mins followed by substrate addition and measured after 60 mins in presence of ATP.

The target in assay [7] is Tyrosine-protein kinase JAK3 (Homo sapiens, UniProt P52333). Description: Inhibition of JAK3 (unknown origin) by flow cytometry analysis. In general terms: In flow cytometry, cells or beads pass a laser one at a time.
In assay [8] the target is T1, Tyrosine-protein kinase JAK2. Description: Inhibition of JAK2 (unknown origin) by flow cytometry analysis.
For assay [9], the target named is Non-receptor tyrosine-protein kinase TYK2 (Homo sapiens, UniProt P29597). Description: Inhibition of TYK2 (unknown origin) by flow cytometry analysis.
The target of assay [10] is Tyrosine-protein kinase JAK1 (Homo sapiens, UniProt P23458). Description: Inhibition of JAK1 (unknown origin) by flow cytometry analysis.
The target of assay [11] is Tyrosine-protein kinase SYK (Homo sapiens, UniProt P43405). The assay is described as follows: Inhibition of SYK (unknown origin) by flow cytometry analysis.
The target in assay [12] is Tyrosine-protein kinase Tec (Homo sapiens, UniProt P42680). The assay is described as follows: Inhibition of TEC (unknown origin) in presence of ATP.
Sequence of Tyrosine-protein kinase Tec (P42680 whole entry): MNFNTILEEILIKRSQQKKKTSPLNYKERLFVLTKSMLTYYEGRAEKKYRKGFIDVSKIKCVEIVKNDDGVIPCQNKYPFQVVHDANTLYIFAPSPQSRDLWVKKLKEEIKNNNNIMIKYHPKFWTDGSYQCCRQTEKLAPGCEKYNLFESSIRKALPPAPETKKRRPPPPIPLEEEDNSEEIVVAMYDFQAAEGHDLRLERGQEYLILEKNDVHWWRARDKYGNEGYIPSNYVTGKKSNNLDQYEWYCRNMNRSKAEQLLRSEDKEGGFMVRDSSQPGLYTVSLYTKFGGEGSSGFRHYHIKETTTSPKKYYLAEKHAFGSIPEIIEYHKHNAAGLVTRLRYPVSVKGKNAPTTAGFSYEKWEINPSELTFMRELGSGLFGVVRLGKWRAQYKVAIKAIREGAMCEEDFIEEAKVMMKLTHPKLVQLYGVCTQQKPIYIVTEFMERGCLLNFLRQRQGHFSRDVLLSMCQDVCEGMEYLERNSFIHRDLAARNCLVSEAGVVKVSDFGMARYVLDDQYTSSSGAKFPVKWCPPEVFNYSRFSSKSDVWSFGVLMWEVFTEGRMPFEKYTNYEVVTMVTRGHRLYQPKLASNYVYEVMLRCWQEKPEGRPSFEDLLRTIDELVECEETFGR

T1 sequence (O60674 whole entry): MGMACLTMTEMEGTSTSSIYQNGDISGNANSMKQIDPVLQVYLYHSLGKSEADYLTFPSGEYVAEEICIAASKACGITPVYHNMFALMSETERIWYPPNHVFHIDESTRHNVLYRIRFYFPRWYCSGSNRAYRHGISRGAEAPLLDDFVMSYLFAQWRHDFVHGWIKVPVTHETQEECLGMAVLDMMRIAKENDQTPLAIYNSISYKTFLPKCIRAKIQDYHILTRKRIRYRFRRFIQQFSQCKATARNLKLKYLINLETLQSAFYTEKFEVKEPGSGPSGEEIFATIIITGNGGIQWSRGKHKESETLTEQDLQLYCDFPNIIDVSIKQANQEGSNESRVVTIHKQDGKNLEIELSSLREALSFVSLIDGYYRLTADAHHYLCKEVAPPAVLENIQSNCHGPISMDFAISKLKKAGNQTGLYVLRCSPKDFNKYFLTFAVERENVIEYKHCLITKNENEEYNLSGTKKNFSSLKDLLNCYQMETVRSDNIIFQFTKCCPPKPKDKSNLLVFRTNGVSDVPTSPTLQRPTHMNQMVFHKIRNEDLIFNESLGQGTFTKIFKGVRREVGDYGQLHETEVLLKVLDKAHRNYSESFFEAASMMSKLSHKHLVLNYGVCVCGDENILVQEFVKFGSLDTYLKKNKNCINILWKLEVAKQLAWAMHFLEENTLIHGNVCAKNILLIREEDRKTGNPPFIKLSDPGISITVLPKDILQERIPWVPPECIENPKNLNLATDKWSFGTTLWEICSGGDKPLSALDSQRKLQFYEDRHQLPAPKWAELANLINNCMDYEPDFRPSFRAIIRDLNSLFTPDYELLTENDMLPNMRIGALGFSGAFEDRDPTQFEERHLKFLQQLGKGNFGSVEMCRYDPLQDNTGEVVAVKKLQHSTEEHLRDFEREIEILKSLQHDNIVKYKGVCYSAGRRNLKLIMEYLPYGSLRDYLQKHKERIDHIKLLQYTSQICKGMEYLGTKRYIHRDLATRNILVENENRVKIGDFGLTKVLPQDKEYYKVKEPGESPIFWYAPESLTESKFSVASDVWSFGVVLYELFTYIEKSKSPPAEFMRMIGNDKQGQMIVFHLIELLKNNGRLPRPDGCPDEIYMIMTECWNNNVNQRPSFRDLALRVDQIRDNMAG
Sequence of Tyrosine-protein kinase JAK3 (P52333 whole entry): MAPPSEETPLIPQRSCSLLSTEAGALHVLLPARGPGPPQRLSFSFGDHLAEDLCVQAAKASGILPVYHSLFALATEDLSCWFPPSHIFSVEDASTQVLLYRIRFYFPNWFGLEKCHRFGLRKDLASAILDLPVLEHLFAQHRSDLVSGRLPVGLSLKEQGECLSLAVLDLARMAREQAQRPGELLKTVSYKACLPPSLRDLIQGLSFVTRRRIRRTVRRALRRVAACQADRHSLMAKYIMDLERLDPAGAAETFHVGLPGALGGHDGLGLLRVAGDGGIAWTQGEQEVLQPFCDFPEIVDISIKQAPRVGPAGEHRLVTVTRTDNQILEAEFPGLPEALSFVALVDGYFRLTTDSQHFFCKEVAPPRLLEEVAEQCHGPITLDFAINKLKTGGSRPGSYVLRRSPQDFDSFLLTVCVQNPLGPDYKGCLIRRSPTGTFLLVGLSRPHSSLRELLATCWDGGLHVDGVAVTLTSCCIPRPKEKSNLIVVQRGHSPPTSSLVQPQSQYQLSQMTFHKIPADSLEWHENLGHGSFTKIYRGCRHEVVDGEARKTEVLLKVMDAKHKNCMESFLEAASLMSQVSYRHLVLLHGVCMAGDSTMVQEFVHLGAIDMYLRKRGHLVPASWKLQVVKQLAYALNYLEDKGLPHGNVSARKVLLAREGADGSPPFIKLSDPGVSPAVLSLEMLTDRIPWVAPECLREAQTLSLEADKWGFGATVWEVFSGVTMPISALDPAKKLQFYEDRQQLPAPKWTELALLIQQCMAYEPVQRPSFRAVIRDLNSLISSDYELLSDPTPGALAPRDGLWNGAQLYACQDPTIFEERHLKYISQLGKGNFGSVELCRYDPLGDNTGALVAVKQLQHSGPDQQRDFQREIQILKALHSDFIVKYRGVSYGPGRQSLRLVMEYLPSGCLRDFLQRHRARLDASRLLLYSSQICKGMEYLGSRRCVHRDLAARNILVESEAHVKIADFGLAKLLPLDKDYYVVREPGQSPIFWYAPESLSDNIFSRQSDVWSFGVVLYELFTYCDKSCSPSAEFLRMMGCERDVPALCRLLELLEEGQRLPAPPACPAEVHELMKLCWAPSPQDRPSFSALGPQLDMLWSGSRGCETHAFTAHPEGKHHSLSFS
Sequence of Tyrosine-protein kinase JAK1 (P23458 whole entry): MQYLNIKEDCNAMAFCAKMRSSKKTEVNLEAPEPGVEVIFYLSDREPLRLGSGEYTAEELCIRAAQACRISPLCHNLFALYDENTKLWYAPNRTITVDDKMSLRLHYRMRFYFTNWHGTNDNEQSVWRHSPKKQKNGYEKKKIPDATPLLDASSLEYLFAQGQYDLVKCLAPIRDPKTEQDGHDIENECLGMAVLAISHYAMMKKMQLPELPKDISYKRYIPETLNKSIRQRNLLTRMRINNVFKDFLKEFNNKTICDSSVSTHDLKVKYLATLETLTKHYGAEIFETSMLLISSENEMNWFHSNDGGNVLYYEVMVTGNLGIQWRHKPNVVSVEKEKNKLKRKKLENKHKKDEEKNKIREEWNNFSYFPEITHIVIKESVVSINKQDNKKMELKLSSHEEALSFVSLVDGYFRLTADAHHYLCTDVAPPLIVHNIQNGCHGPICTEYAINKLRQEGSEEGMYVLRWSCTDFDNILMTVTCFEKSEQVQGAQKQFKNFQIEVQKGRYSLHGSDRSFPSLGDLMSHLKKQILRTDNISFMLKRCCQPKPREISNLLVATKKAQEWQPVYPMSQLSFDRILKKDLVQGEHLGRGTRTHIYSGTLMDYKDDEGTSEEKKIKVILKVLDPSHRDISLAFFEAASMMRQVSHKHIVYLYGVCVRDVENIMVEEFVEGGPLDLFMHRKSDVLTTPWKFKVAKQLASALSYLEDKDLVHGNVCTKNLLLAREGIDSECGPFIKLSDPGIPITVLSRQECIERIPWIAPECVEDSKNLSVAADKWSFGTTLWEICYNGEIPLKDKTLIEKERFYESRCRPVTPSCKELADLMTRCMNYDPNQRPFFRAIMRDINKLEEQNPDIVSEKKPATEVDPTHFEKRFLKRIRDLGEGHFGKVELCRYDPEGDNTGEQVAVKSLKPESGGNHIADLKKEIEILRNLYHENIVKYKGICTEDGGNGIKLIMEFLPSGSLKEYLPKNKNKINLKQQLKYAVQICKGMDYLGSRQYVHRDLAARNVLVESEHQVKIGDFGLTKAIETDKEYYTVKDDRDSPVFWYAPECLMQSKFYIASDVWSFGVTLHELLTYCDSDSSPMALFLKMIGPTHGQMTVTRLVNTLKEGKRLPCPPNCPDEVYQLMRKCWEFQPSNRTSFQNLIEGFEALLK

As a reminder, the IC50 is the point on the concentration scale where inhibition reaches its midpoint. As to `C[C@H]1CC(C(=O)CC#N)[C@]12CCN(c1ncnc3[nH]ccc13)C2` (stereo partly drawn), in assay [1], the IC50 came to 2.6 nM.

For the molecule `C1=N/C2=N/c3ccc(OCCN4CCCC4)c(c3)COC/C=C/COCc3cccc(c3)C(=C1)N2` [PACRITINIB], the Activity with BaF3 [2] is 99%; with BaF3 [3], 42%. Further, in the assay on MOLM-13, the inhibition in vivo at 150 mg/kg was 83%.

For `O=C1Nc2c(Br)cccc2/C1=C1/Nc2ccccc2/C1=N\OCCN1CCNCC1`, in assay [4], the IC50 is more than 10000 nM.

Consider `CC(=O)c1ccc(NC(=O)N2CCN(c3ccnc(Nc4ccc(N5CCOCC5)cc4)n3)CC2)cc1`, for which the IC50 turned out to be 2.9 nM in [5] and 1.4 nM in assay [6].

For the molecule `N#CCC1CCN(c2nc(Nc3ccc(N4CCC(O)CC4)cc3)c3c(=O)[nH]ncc3n2)CC1` [GUSACITINIB], the half-inhibitory concentration (IC50) is 11 nM in assay [7]; 4 nM in assay [8]; 8 nM in assay [9]; 46 nM in assay [10]; 5 nM in [11].

As to `C=CC(=O)N1C[C@H](Nc2ncnc3[nH]ccc23)CC[C@@H]1C` [RITLECITINIB], the concentration for half-maximal inhibition (IC50) in [12] is 155 nM.

The values above are taken from ChEMBL document CHEMBL5346859, “Dual-target Janus kinase (JAK) inhibitors: Comprehensive review on the JAK-based strategies for treating solid or hematological malignancies and immune-related diseases” (Eur J Med Chem, 2022).
